Laboratory results from BigSolDB 2.1.

C[n+]1ccn(CCOCCOCCn2cc[n+](C)c2)c1.F[P-](F)(F)(F)(F)F.F[P-](F)(F)(F)(F)F
solubility (mole fraction)
Conditions	283 K	288 K	293 K	298 K	303 K	308 K
in DMF	0.098	0.101	0.105	0.109	0.113	–
in DMSO	–	–	0.106	0.119	0.131	0.14
in ethanol	3.3e-05	4e-05	4.7e-05	5.7e-05	7.2e-05	–
in methanol	0.000198	0.000231	0.000285	0.000369	0.000502	–
in water	0.00015	0.000197	0.000257	0.000334	0.00043	–
